Experimental data taken from patent US6521619B2, “Aryl phenylcyclopropyl sulfide derivatives and their use as cell adhesion inhibiting anti-inflammatory and immune suppressive agents” (Icos Corporation, priority 2000, dated 2003).

Molecular target: T1, ICAM-1/LFA-1 interaction (recombinant LFA-1, biotinylated recombinant ICAM-1/Ig) (Homo sapiens, UniProt P20701)
T1 construct: Recombinant LFA-1 (100 mL of 0.7 mg/ml, ICOS Corporation) in D-PBS is then added to each well
Experiment: ICAM-1/LFA-1 Biochemical Interaction Assay (46A)
Assay type: binding
Conditions: @ 2 μM compound
Procedure: Compounds that antagonize the interaction between ICAM-1 and LFA-1 can be identified, and their activities quantitated, using both biochemical and cell-based adhesion assays. A primary biochemical assay, described below as assay 46A, was utilized to measure the ability of the present compounds to block the interaction between the integrin LFA-1 and its adhesion partner ICAM-1.
46A. ICAM-1/LFA-1 Biochemical Interaction Assay
In the biochemical assay, 100 mL of anti-LFA-1 antibody (ICOS Corporation) at a concentration of 5 mg/ml in Dulbecco's phosphate-buffered saline (D-PBS) is used to coat wells of a 96-well microtiter plate overnight at 4° C. The wells are then washed twice with wash buffer (D-PBS w/o Ca^++ or Mg^++, 0.05% Tween 20) and blocked by addition of 200 mL of D-PBS, 5% fish skin gelatin. Recombinant LFA-1 (100 mL of 0.7 mg/ml, ICOS Corporation) in D-PBS is then added to each well. Incubation continues for 1 hour at room temperature and the wells are washed twice with wash buffer. Serial dilutions of compounds being assayed as ICAM-1/LFA-1 antagonists, prepared as 10 mM stock solutions in dimethyl sulfoxide (DMSO), are diluted in D-PBS, 2 mM MgCl2, 1% fish skin gelatin and 50 mL of each dilution added to duplicate wells. This is followed by addition of […] of 0.8 mg/ml biotinylated recombinant ICAM-1/Ig (ICOS Corporation) to the wells and the plates are incubated at room temperature for 1 hour The wells are then washed twice with wash buffer and 100 mL of Europium-labeled Streptavidin (Wallac Oy) diluted 1:100 in Delfia assay buffer (Wallac Oy) are added to the wells. Incubation proceeds for 1 hour at room temperature. […] Incubation proceeds for 5 minutes with constant mixing.
where “background” refers to wells that are not coated with anti-LFA-1 antibody.

T1 sequence (P20701 26-1170): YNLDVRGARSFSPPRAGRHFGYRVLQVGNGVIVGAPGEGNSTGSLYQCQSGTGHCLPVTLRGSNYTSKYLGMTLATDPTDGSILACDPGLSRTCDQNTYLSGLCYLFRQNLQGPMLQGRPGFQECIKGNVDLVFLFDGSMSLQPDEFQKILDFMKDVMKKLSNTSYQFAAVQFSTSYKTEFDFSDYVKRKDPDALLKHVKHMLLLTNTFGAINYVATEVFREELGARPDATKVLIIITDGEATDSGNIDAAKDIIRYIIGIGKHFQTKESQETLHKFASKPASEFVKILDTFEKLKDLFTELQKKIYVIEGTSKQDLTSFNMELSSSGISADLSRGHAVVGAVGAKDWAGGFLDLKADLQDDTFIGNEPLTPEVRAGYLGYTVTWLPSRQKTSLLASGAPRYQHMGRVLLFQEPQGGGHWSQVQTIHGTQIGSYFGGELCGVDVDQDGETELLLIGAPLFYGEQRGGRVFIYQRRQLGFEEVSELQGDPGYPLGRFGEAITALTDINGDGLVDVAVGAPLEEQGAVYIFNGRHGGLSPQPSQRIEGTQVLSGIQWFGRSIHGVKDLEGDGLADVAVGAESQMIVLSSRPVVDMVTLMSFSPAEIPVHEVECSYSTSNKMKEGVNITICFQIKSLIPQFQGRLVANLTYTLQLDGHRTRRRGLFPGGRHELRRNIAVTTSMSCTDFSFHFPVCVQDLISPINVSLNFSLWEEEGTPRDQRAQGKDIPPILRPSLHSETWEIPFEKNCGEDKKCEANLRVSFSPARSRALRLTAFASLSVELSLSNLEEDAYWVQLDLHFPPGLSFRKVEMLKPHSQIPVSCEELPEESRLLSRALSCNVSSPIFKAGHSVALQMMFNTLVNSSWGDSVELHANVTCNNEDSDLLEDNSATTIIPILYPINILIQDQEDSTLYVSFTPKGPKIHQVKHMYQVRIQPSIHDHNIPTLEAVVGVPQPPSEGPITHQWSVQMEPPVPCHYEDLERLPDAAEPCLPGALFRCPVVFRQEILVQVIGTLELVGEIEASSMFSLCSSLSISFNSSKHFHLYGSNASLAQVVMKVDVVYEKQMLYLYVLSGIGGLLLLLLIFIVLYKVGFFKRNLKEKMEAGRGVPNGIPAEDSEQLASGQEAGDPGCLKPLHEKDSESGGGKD
T1 sequence (P05107 23-769 partner): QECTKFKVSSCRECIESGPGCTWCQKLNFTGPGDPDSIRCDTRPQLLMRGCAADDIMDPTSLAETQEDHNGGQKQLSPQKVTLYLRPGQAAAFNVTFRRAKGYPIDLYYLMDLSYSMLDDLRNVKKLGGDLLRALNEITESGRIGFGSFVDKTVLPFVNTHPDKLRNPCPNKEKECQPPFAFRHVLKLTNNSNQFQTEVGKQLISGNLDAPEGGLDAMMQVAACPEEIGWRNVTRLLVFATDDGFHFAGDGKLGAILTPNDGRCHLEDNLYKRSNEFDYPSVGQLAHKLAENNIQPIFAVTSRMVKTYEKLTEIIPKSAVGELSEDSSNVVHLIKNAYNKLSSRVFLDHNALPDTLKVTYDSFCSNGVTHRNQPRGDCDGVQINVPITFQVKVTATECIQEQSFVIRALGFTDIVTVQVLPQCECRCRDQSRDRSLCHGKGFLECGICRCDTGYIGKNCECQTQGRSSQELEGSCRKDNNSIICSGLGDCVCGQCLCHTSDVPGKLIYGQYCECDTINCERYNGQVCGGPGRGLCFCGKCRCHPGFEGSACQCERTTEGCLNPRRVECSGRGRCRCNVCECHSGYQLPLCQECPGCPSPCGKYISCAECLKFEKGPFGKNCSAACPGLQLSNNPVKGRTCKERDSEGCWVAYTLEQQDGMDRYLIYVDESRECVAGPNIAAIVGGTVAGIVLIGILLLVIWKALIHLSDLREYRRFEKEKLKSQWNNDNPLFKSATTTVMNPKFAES

inhibition at 2 µM | Molecule | % inhibition
93% | O=C(O)C1CCCN(c2ccccc2Sc2ccc(C3CC3C(=O)NCCCN3CCCC3=O)cc2C(F)(F)F)C1 (mixture of isomers) [Example 6, (±)-(2-(2-carboxyethyl)phenyl)[2-trifluoromethyl-4-(trans-(2-((3-(1-pyrrolidin-2-onyl)-prop-1-ylamino)carbonyl)cycloprop-1-yl)phenyl]sulfide] | 
 | (±)-(2-Bromophenyl)[2-trifluoromethyl-4-(trans-(2-((3-(1-pyrrolidin-2-onyl)-prop-1-ylamino)carbonyl)cycloprop-1-yl)phenyl]sulfide [Example 1] | 96% @ 2 μM

Same assay, conditions: @ 2 μM compound; 2 µM

% inhibition | Molecule
81% @ 2 μM | O=C(NCCCN1CCCC1=O)[C@@H]1C[C@H]1c1ccc(Sc2ccccc2Br)c(C(F)(F)F)c1 (relative stereo) [Example 4]
94% @ 2 μM | O=C(NCCCN1CCCC1=O)[C@@H]1C[C@H]1c1ccc(Sc2ccccc2Br)c(C(F)(F)F)c1 (relative stereo) [Example 5]

Same assay, conditions: @ 2 μM compound; read-out: % inhibition

inhibition at 2 µM | Molecule
95% | CC(C)c1ccccc1Sc1ccc(C2CC2C(=O)NCC(=O)O)c(Cl)c1Cl (racemic) [Example 2, (±)-(2-Isopropylphenyl)[2,3-dichloro-4-(trans-(carboxymethylamino)carbonyl)cycloprop-1-yl)phenyl]sulfide]
94% | O=C(NCCCN1CCCC1=O)C1CC1c1ccc(Sc2ccccc2N2CCOCC2)c(Cl)c1 (racemic) [Example 8, (±)-(2-Morpholin-1-ylphenyl)[2-chloro-4-(trans-(2-((3-(1-pyrrolidin-2-onyl)-prop-1-ylamino)carbonyl)cycloprop-1-yl)phenyl]sulfide]
96% | CC(C)c1ccccc1Sc1ccc(C2CC2C(=O)N2CCOCC2)c(Cl)c1Cl (racemic) [Example 20, (±)-(2-Isopropylphenyl)[2,3-dichloro-4-(trans-(2-(morpholin-1-yl)carbonyl)cycloprop-1-yl)phenyl]sulfide]
94% | CC(C)c1ccccc1Sc1ccc([C@@H]2C[C@H]2C(=O)NC2CCC2)c(Cl)c1Cl (racemic) [Example 24, (±)-(2-Isopropylphenyl)[2,3-dichloro-4-(trans-2-(cyclobutylaminocarbonyl)cycloprop-1-yl)phenyl]sulfide]
95% | CC(C)c1ccccc1Sc1ccc(C2CC2C(=O)N2CCC2)c(Cl)c1Cl (racemic) [Example 25, (±)-(2-Isopropylphenyl)[2,3-dichloro-4-(trans-(2-(azetidin-1-yl)carbonyl)cycloprop-1-yl)phenyl]sulfide]

Same assay, conditions: @ 4 μM compound

inhibition at 4 µM | % inhibition | Molecule
93% |  | COc1ccccc1Sc1ccc(C2CC2C(=O)NCC(=O)O)c(Cl)c1Cl (mixture of isomers) [Example 12]
95% |  | COc1ccccc1Sc1ccc(C2CC2C(=O)NCCC(=O)O)c(Cl)c1Cl (mixture of isomers) [Example 13]
94% |  | O=C(NCCCN1CCCC1=O)C1CC1c1ccc(Sc2ccccc2N2CCOCC2)c(Cl)c1 (racemic) [Example 8, (±)-(2-Morpholin-1-ylphenyl)[2-chloro-4-(trans-(2-((3-(1-pyrrolidin-2-onyl)-prop-1-ylamino)carbonyl)cycloprop-1-yl)phenyl]sulfide]
44% |  | O=C(NCCCN1CCCC1=O)C1CC1c1ccc(Sc2cccc(N3CCOCC3)c2)c(C(F)(F)F)c1 (racemic) [Example 11, (±)-(3-Morpholin-1-ylphenyl)[2-trifluoromethyl-4-(trans-(2-((3-(1-pyrrolidin-2-onyl)-prop-1-ylamino)carbonyl)cycloprop-1-yl)phenyl]sulfide]
91% |  | O=C(O)C1CC1c1ccc(Sc2ccccc2N2CCOCC2)c(Cl)c1Cl (racemic) [Example 12, (±)-(2-Morpholin-1-ylphenyl)[2,3-dichloro-4-(trans-(2-carboxycycloprop-1-yl)phenyl]sulfide]
88% |  | O=C(O)C1CC1c1ccc(Sc2ccccc2Br)c(Cl)c1Cl (racemic) [Example 15, (±)-(2-Bromophenyl)[2,3-dichloro-4-(trans-(2-carboxycycloprop-1-yl)phenyl]sulfide]
 | 96% @ 4 μM | CC(C)c1ccccc1Sc1ccc([C@@H]2C[C@H]2C(=O)N2CCCCC2C(=O)O)c(Cl)c1Cl (mixture of isomers) [Example 19, (±)-(2-Isopropylphenyl)[2,3-dichloro-4-(trans-(2-(2-carboxypiperidin-1-yl)carbonyl)cycloprop-1-yl)phenyl]sulfide]

Continued, molecule first:

Molecule | inhibition at 4 µM | % inhibition
O=C(NCCCN1CCCC1=O)C1CC1c1ccc(Sc2ccccc2Br)c(C(F)(F)F)c1 (racemic) [Example 1, (±)-(2-Bromophenyl)[2-trifluoromethyl-4-(trans-(2-((3-(1-pyrrolidin-2-onyl)-prop-1-ylamino)carbonyl)cycloprop-1-yl)phenyl]sulfide] | 92% | 
(±)-(2-Isopropylphenyl)[2,3-dichloro-4-(trans-2-(cyclobutylaminocarbonyl)cycloprop-1-yl)phenyl]sulfide [Example 24] |  | 96% @ 4 μM
(±)-(2-Isopropylphenyl)[2,3-dichloro-4-(trans-(2-(4-acetylpiperazin-1-yl)carbonyl)cycloprop-1-yl)phenyl]sulfide [Example 21] |  | 96% @ 4 μM
(±)-(2-Isopropylphenyl)[2,3-dichloro-4-(trans-(2-(4-carboxypiperidin-1-yl)carbonyl)cycloprop-1-yl)phenyl]sulfide [Example 18] |  | 94% @ 4 μM
(±)-(2-Isopropylphenyl)[2,3-dichloro-4-(trans-(2-(morpholin-1-yl)carbonyl)cycloprop-1-yl)phenyl]sulfide [Example 20] |  | 96% @ 4 μM

Tested on: JY-8 cells (expressing LFA-1) adhering to immobilized ICAM-1
Experiment: ICAM-1/JY-8 Cell Adhesion Assay (46B)
Assay type: cell-based, human
Conditions: Homo sapiens; @ 1 μM compound (cell); JY-8 cell adhesion to ICAM-1
Procedure: Biologically relevant activity of the compounds in this invention was confirmed using a cell-based adhesion assay, (described below as assay 46B) which measured the ability of the present compounds to block the adherence of JY-8 cells (a human EBV-transformed B cell line expressing LFA-1 on its surface) to immobilized ICAM-1.
46B. ICAM-1 /JY-8 Cell Adhesion Assay
For measurement of inhibitory activity in the cell-based adhesion assay, 96-well microtiter plates are coated with 70 μL of recombinant ICAM-1/g (ICOS Corporation) at a concentration of 5 μg/mL in D-PBS w/o Ca^++ or Mg^++ overnight at 4° C. The wells are then washed twice with D-PBS and blocked by addition of 200 μL of D-PBS, 5% fish skin gelatin by incubation for 1 hour at room temperature. Fluorescent tagged JY-8 cells (a human EBV-transformed B cell line expressing LFA-1 on its surface; 50 μL at 2×10^6 cells/ml in RPMI 1640 (standard cell culture medium)/1% fetal bovine serum) are added to the wells. For fluorescent labeling of JY-8 cells, 5×10^6 cells washed once in RPMI 1640 are resuspended in 1 mL of RPMI 1640 containing 2 μM Calceiun AM (MolecularProbes), are incubated at 37° C for 30 minutes and washed once with RPMI-1640/1% fetal bovine serum. Dilutions of compounds to be assayed for ICAM-1/LFA-1 antagonistic activity are prepared in RPMI-1640/1% fetal bovine serum from 10 mM stock solutions in DMSO and 50 μL are added to duplicate wells. Microtiter plates are incubated for 45 minutes at room temperature and the wells are washed gently once with RPMI-1640/1% fetal bovine serum. Fluorescent intensity is measured in a fluorescent plate reader with an excitation wavelength at 485 nm and an emission wavelength at 530 nm. The percent inhibition of a candidate compound at a given concentration is calculated using the following equation: [formula]
and these concentration/inhibition data are used to generate dose response curves, from which IC50 values are derived.

Molecule | inhibition at 1 µM
O=C(NCCCN1CCCC1=O)C1CC1c1ccc(Sc2ccccc2N2CCOCC2)c(C(F)(F)F)c1 (racemic) [Example 7, (±)-(2-Morpholin-1-ylphenyl)[2-trifluoromethyl-4-(trans-(2-((3-(1-pyrrolidin-2-onyl)-prop-1-ylamino)carbonyl)cycloprop-1-yl)phenyl]sulfide] | 84%

Same assay, conditions: Homo sapiens; @ 2 μM compound (cell); JY-8 cell adhesion to ICAM-1

Molecule | inhibition at 2 µM
CC(C)c1ccccc1Sc1ccc(C2CC2C(=O)N2CCCC(C(=O)O)C2)c(Cl)c1Cl (racemic) [Example 3, (±)-(2-Isopropylphenyl)[2,3-dichloro-4-(trans-(2-(3-carboxypiperidine))carbonyl)cycloprop-1-yl)phenyl]sulfide] | 90%
CC(C)c1ccccc1Sc1ccc(C2CC2C(=O)NCCCC(=O)O)c(Cl)c1Cl (racemic) [Example 17, (±)-(2-Isopropylphenyl)[2,3-dichloro-4-(trans-(2-(3-carboxypropylamino)carbonyl)cycloprop-1-yl)phenyl]sulfide] | 86%
CC(C)c1ccccc1Sc1ccc(C2CC2C(=O)NCCCN2CCCC2=O)c(Cl)c1Cl (racemic) [Example 22, (±)-(2-Isopropylphenyl)[2,3-dichloro-4-(trans-(2-((3-(1-pyrrolidin-2-onyl)-prop-1-ylamino)carbonyl)cycloprop-1-yl)phenyl]sulfide] | 92%

Same assay, conditions: Homo sapiens; @ 4 μM compound; JY-8 cell adhesion to ICAM-1

Molecule | inhibition at 4 µM
O=C(NCCCN1CCCC1=O)C1CC1c1ccc(Sc2ccccc2N2CCOCC2)c(Cl)c1 (racemic) [Example 8, (±)-(2-Morpholin-1-ylphenyl)[2-chloro-4-(trans-(2-((3-(1-pyrrolidin-2-onyl)-prop-1-ylamino)carbonyl)cycloprop-1-yl)phenyl]sulfide] | 70%
O=C(NCCCN1CCCC1=O)C1CC1c1ccc(Sc2ccccc2N2CCCC2)c(C(F)(F)F)c1 (racemic) [Example 10, (±)-(2-Pyrrolidin-1-ylphenyl)[2-trifluoromethyl-4-(trans-(2-((3-(1-pyrrolidin-2-onyl)-prop-1-ylamino)carbonyl)cycloprop-1-yl)phenyl]sulfide] | 72%
